In assay [1] the target is T1, MASP-1 CUB2 (Rattus norvegicus, UniProt Q8CHN8).
T1 construct: MASP-1 CUB2 (residues E165-A277 of the mature polypeptide, isoform 1); made in house; host or cells: E. coli BL21 DE3
T1 sequence (Q8CHN8 189-301): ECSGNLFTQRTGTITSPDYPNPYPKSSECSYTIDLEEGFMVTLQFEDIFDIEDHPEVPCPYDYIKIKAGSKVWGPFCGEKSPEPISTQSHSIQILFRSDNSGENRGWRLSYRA
Briefly: Isothermal titration calorimetry of Ca2+ binding to MASP-1 CUB2. To be noted: ITC, two independent experiments. Here is the method:
The CUB2 domain was made calcium free by EDTA treatment and dialyzed extensively into 50 mM Tris/HCl, pH 7.4 containing 150 mM NaCl. Freshly prepared 2 mM CaCl2 in the same batch of assay buffer was titrated into CUB2 domain (114 μM) in the cell of a VP-isothermal titration calorimeter (Microcal) equilibrated at 25° C. The data were fitted to a 1:1 binding model using the Origin software supplied by the manufacturer, after subtraction of the heats of dilution of the calcium. Because binding was weak, the experiment was carried out under low ‘c-value’ conditions (where the concentration of the protein in the cell is lower than that of the KD).
Background: In ITC the heat of successive injections is recorded.

In assay [2] the target is T2, MASP-1 binding to immobilized MBL (Rattus norvegicus, UniProt Q8CHN8, H450D/I451D/K449D/R453K/S452D).
T2 construct: made in house
T2 sequence (Q8CHN8 25-704 K449D/H450D/I451D/S452D/R453K): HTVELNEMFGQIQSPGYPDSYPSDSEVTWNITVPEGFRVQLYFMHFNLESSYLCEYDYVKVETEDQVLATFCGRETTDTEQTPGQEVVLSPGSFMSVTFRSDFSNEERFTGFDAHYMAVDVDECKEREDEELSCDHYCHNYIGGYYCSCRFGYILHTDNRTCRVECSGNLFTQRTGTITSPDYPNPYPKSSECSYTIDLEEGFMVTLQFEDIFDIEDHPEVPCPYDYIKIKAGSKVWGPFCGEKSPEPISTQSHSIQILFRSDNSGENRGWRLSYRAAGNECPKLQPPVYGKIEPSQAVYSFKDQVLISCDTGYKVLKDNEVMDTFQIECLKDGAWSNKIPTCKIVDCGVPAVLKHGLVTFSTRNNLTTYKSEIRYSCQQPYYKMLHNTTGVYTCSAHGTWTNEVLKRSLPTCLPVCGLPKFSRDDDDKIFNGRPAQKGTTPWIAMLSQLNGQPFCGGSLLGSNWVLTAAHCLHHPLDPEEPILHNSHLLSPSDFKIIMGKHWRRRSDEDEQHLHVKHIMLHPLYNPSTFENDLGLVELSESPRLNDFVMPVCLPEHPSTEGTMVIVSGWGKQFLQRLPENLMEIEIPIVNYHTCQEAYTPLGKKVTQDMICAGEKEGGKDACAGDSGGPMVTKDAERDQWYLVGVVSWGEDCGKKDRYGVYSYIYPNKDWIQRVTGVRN
Briefly: Surface plasmon resonance inhibition of MASP-1 binding to immobilized MBL. Particulars: for Inhibition of MBL/MASP-1 binding (in words): full-length MBL/MASP-1 complexes. Here is the method:
Rat MBL-A (referred to as MBL throughout) was produced as described previously. (Wallis and Drickamer, supra (1999)). MASP-1ent (referred to as MASP-1) is a modified form of rat MASP-1 in which the zymogen cleavage site has been replaced by an enterokinase recognition site (DDDDK; SEQ ID NO: 4). […] (Chen and Wallis (2004)). […] (Persikov et al., J Biol Chem 280:19343-19349 (2005)).
MBL (0.025 mg/ml) was immobilized onto the surface of a GLM sensor chip (˜10,000 response units) at pH 4.5, using amine-coupling chemistry. Binding to CUB2 was measured on a ProteOn® XPR36 (BioRad) in 10 mM Tris/HCl pH 7.4, containing 140 mM NaCl, 5 mM Ca^2+ and 0.005% Tween-20 at 25° C., at a flow rate of 25 μL/min. For inhibition assays, MBL was immobilized on to a CM-5 sensor chip (14,000 response units) and binding was measured on a Biacore® 2000 (GE Healthcare) in 20 mM Tris/HCl pH 7.4, containing 140 mM NaCl, 5 mM Ca^2+, and 0.005% SP-20. MASP-1 (100 nM) was premixed with inhibitor and flowed over the chip surface at a rate of 5 μL/min at 25° C. Changes in response units caused by differences in sample composition were subtracted from all data. To account for changes in ionic strength of the buffer due to the inhibitor, binding was measured in the presence of equivalent concentrations of NaCl.

The test system of assay [3] is lectin pathway complement activation. Briefly: Lectin pathway specific complement activation (Wieslab MBL pathway kit, membrane-attack complex deposition on mannan-coated plates). Particulars: three independent experiments, read-out: IC50, inhibition of lectin pathway complement activation. In kind it is biochemical. Here is the method: Lectin pathway specific complement activation was measured using the Wieslab® MBL pathway kit (Euro-Diagnostica), which measures deposition of the membrane attack complexes on a mannan-coated plate. The lectin pathway is functional, even under conditions of high ionic strength (1M NaCl). (Petersen et al., J Immunol Methods 257:107-116 (2001)).

Assay [4] deals with MBL (Rattus norvegicus, UniProt P19999). To be noted: read-out: Affinity of full-size MASP-1 binding to MBL; cited from earlier work.

Values joined by “and” are separate entries in the source; they are usually repeats but may differ in a detail not shown here. Equal entries are not always repeated.

On to `[Ca+2].[Cl-].[Cl-]` [Ca^2+, CaCl2], for which the Kd in assay [1] (single Ca2+ site model, 25° C.) was 0.49 mM and 0.5 mM. Further, the “ΔH of Ca2+ binding to MASP-1 CUB2” value in assay [1] is -1.1 ± 0.14 kcal/mol.
Consider `[Cl-].[Na+]` [NaCl], for which the “Binding of MASP-1 to MBL, % of maximal” value in assay [2] (ionic strength control, all NaCl concentrations tested (up to 550 mM)) is given as > 60%.
On to `CCN` [ethylamine], for which the “Inhibition of MBL/MASP-1 binding (in words)” value in assay [2] is on record as “inhibitors”.
A word on the IC50: it is the concentration needed to halve the response being measured. As for `NCCCC[C@H](N)C(=O)O` [lysine], the concentration for half-maximal inhibition (IC50) in assay [2] (SPR, MASP-1 100 nM premixed with inhibitor, 25° C., three independent experiments) is 49 mM and ~50 mM; in assay [3], 25 mM and ~25 mM.
For `CN` [methylamine], the “Inhibition of MBL/MASP-1 binding (in words)” value in assay [2] is given as “inhibitors”.

B1: MASP-1: full-size MBL-associated serine protease 1 (protein, UniProt Q8CHN8 1-704, looked up)
chain: MRFLSFRRLLLYHVLCLTLTEVSAHTVELNEMFGQIQSPGYPDSYPSDSEVTWNITVPEGFRVQLYFMHFNLESSYLCEYDYVKVETEDQVLATFCGRETTDTEQTPGQEVVLSPGSFMSVTFRSDFSNEERFTGFDAHYMAVDVDECKEREDEELSCDHYCHNYIGGYYCSCRFGYILHTDNRTCRVECSGNLFTQRTGTITSPDYPNPYPKSSECSYTIDLEEGFMVTLQFEDIFDIEDHPEVPCPYDYIKIKAGSKVWGPFCGEKSPEPISTQSHSIQILFRSDNSGENRGWRLSYRAAGNECPKLQPPVYGKIEPSQAVYSFKDQVLISCDTGYKVLKDNEVMDTFQIECLKDGAWSNKIPTCKIVDCGVPAVLKHGLVTFSTRNNLTTYKSEIRYSCQQPYYKMLHNTTGVYTCSAHGTWTNEVLKRSLPTCLPVCGLPKFSRKHISRIFNGRPAQKGTTPWIAMLSQLNGQPFCGGSLLGSNWVLTAAHCLHHPLDPEEPILHNSHLLSPSDFKIIMGKHWRRRSDEDEQHLHVKHIMLHPLYNPSTFENDLGLVELSESPRLNDFVMPVCLPEHPSTEGTMVIVSGWGKQFLQRLPENLMEIEIPIVNYHTCQEAYTPLGKKVTQDMICAGEKEGGKDACAGDSGGPMVTKDAERDQWYLVGVVSWGEDCGKKDRYGVYSYIYPNKDWIQRVTGVRN
modifications: full-length
Regarding B1, the Kd in assay [4] was 10 to 100 nM.

(Values after US8795973B2, “Methods for identifying inhibitors of mannan-binding lectin associated serine protease (MASP) proteins and uses thereof” (University of Leceister, priority 2010, dated 2014).)
